Drawing on US20230265151A1, “GIP/GLP1 CO-AGONIST COMPOUNDS” (priority 2020, published 2023), this text covers Emax and EC50 for 4 molecules.

Where two headings read alike, the source gives them in different places.

Holding throughout (type): cell-based
The target of one experiment is hGLP-1R (Homo sapiens, UniProt P43220). Kind of experiment: Functional cAMP formation (HTRF) in HEK-293 clonal cells expressing hGLP-1R, 0.1% bovine casein, without or with 1.0% human serum albumin. On the set-up: expressed in transfected cells. As to conditions: for EC50: cAMP. The procedure, abridged:
(§1)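 Cells were stimulated with peptide for 30 min at 37° C, then lysed in buffer carrying cAMP-d2 and anti-cAMP Eu3+-cryptate for a competitive HTRF read after at least 60 min at room temperature. The 665/620 nm ratio was converted to nM cAMP against a standard curve.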
A general note: Cyclic AMP is a second messenger, typically raised through Gs and lowered through Gi signalling.

For a further experiment, the target named is T1, hGCGR (Homo sapiens, UniProt P47871).
T1 construct: expressed in transfected cells
Kind of experiment: Functional cAMP formation (HTRF) in HEK-293 clonal cells expressing hGCGR, 0.1% bovine casein, without or with 1.0% human serum albumin. The procedure, abridged:
as §1

The target in the next experiment is T2, hGIPR (Homo sapiens, UniProt P48546).
T2 construct: expressed in transfected cells
T2 sequence (P48546 22-466): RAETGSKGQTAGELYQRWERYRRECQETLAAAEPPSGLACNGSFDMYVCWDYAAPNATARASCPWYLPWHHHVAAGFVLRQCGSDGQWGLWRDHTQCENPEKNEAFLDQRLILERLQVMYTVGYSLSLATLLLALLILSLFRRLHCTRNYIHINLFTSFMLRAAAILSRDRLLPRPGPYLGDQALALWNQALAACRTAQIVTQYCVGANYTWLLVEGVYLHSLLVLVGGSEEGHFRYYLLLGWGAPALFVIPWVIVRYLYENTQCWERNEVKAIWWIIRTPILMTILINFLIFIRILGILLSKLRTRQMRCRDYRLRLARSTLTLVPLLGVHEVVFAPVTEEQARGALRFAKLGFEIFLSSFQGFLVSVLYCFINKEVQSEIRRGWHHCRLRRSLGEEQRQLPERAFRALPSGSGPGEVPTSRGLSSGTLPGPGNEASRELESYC
Kind of experiment: Functional cAMP formation (HTRF) in HEK-293 clonal cells expressing hGIPR, 0.1% bovine casein, without or with 1.0% human serum albumin. As to conditions: for EC50: geometric mean. The method in brief:
as §1

The mark [1] stands for this setting: 37° C., 0.1% bovine casein (no human serum albumin), geometric mean, read-out: hGLP-1R EC50, nM (SEM, n).
[2] abbreviates: 37° C., 0.1% bovine casein and 1.0% human serum albumin, geometric mean (SEM, n), read-out: hGLP-1R EC50, nM (SEM, n).
The mark [3] stands for this setting: cAMP, 37° C., 0.1% bovine casein (no human serum albumin), geometric mean, read-out: hGCGR EC50, nM (SEM, n).
[4] abbreviates: cAMP, 37° C., 0.1% bovine casein and 1.0% human serum albumin, geometric mean (SEM, n), read-out: hGCGR EC50, nM (SEM, n).
The mark [5] stands for this setting: HEK293, cAMP, 37° C., 0.1% bovine casein and 1.0% human serum albumin, percent of maximal response to GIP(1-42)NH2, read-out: hGIPR Emax, % ± SEM.
Where [6] appears, read: HEK293, cAMP, 37° C., 0.1% bovine casein, percent of maximal response to GIP(1-42)NH2, arithmetic mean, read-out: hGIPR Emax, % ± SEM.
The mark [7] stands for this setting: cAMP, 37° C., 0.1% bovine casein (no human serum albumin), read-out: hGIPR EC50, nM (SEM, n).

T1 sequence (P47871 26-477): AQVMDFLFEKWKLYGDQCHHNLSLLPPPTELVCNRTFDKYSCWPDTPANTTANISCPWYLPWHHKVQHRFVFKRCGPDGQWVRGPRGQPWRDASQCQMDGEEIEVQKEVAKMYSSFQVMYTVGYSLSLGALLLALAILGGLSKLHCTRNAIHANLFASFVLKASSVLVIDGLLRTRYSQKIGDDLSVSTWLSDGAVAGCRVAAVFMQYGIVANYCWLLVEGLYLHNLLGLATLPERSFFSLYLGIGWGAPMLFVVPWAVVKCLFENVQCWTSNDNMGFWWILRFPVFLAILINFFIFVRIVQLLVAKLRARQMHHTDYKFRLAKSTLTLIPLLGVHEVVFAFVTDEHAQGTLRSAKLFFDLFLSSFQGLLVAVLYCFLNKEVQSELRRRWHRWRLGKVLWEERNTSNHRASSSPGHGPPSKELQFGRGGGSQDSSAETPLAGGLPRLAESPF
Chain of hGLP-1R (P43220 24-463): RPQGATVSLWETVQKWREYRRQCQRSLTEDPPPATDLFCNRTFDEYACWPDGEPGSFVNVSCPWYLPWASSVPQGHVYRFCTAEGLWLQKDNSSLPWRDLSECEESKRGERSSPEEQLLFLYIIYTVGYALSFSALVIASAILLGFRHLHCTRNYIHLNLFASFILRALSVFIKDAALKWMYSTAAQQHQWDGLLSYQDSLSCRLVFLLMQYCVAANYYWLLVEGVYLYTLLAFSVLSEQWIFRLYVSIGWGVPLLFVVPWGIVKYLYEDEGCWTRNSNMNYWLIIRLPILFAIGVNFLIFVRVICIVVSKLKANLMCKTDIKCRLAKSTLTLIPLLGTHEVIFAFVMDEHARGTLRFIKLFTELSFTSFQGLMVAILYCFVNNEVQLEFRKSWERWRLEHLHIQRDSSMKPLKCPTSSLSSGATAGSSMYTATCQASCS

With `CC[C@H](C)[C@H](NC(=O)[C@H](CC(C)C)NC(=O)[C@](C)(Cc1ccc(O)cc1)NC(=O)[C@H](CCCCNC(=O)COCCOCCNC(=O)COCCOCCNC(=O)CC[C@H](NC(=O)CCCCCCCCCCCCC(=O)O)C(=O)O)NC(=O)[C@@H](NC(=O)[C@H](Cc1ccccc1)NC(=O)[C@H](CCC(=O)O)NC(=O)C(C)(C)NC(=O)[C@H](CCC(N)=O)NC(=O)[C@H](C)NC(=O)[C@H](CCCCNC(=O)COCCOCCNC(=O)COCCOCCNC(=O)CC[C@H](NC(=O)CCCCCCCCCCCCC(=O)O)C(=O)O)NC(=O)[C@H](CCCN)NC(=O)[C@H](CC(=O)O)NC(=O)[C@H](CC(C)C)NC(=O)[C@](C)(CC(C)C)NC(=O)[C@@H](NC(=O)C(C)(C)NC(=O)[C@@H](NC(=O)[C@H](CC(=O)O)NC(=O)[C@H](CO)NC(=O)[C@@H](NC(=O)[C@](C)(Cc1ccccc1)NC(=O)[C@@H](NC(=O)CNC(=O)[C@H](CCC(=O)O)NC(=O)C(C)(C)NC(=O)[C@@H](N)Cc1ccc(O)cc1)[C@@H](C)O)[C@@H](C)O)C(C)C)[C@@H](C)CC)[C@@H](C)CC)C(=O)N[C@@H](CCC(=O)O)C(=O)NCC(=O)NCC(=O)N1CCC[C@H]1C(=O)N[C@@H](CO)C(=O)N[C@@H](CO)C(=O)NCC(=O)N[C@@H](C)C(=O)N1CCC[C@H]1C(=O)N1CCC[C@H]1C(=O)N1CCC[C@H]1C(=O)N[C@@H](CO)C(N)=O` [Example 182], the maximal response (Emax) on hGLP-1R (HEK293, read-out: hGLP-1R Emax, % ± SEM, percent of maximal response to GLP-1(7-36)NH2, 37° C., 0.1% bovine casein, arithmetic mean) was determined as 96.9%; at hGIPR (HEK293, read-out: hGIPR Emax, % ± SEM, percent of maximal response to GIP(1-42)NH2, 37° C., 0.1% bovine casein, arithmetic mean), 89%. The concentration giving a half-maximal response (EC50) is 0.185 nM at hGLP-1R (hGLP-1R EC50, nM (SEM, n), incubated at 37° C., 0.1% bovine casein (no human serum albumin), geometric mean) and greater than 9950 nM at hGCGR (hGCGR EC50, nM (SEM, n), cAMP, incubated at 37° C., 0.1% bovine casein (no human serum albumin), geometric mean).

In the case of `CC[C@H](C)[C@H](NC(=O)[C@H](CCCN)NC(=O)[C@H](CC(=O)O)NC(=O)[C@H](CC(C)C)NC(=O)[C@](C)(CC(C)C)NC(=O)[C@@H](NC(=O)C(C)(C)NC(=O)[C@H](Cc1ccc(O)cc1)NC(=O)[C@H](CC(=O)O)NC(=O)[C@H](CO)NC(=O)[C@@H](NC(=O)[C@](C)(Cc1ccccc1F)NC(=O)[C@@H](NC(=O)CNC(=O)[C@H](CCC(=O)O)NC(=O)C(C)(C)NC(=O)[C@@H](N)Cc1ccc(O)cc1)[C@@H](C)O)[C@@H](C)O)[C@@H](C)CC)C(=O)N[C@@H](C)C(=O)N[C@@H](CCC(N)=O)C(=O)NC(C)(C)C(=O)N[C@@H](CCCN)C(=O)N[C@@H](Cc1ccccc1)C(=O)N[C@H](C(=O)N[C@@H](CCCCNC(=O)COCCOCCNC(=O)COCCOCCNC(=O)COCCOCCNC(=O)CC[C@H](NC(=O)CCCCCCCCCCCCC(=O)O)C(=O)O)C(=O)N[C@@](C)(Cc1ccc(O)cc1)C(=O)N[C@@H](CC(C)C)C(=O)N[C@H](C(=O)N[C@@H](CCCCNC(=O)COCCOCCNC(=O)COCCOCCNC(=O)COCCOCCNC(=O)CC[C@H](NC(=O)CCCCCCCCCCCCC(=O)O)C(=O)O)C(=O)NCC(=O)NCC(=O)N1CCC[C@H]1C(=O)N[C@@H](CO)C(=O)N[C@@H](CO)C(=O)NCC(=O)N[C@@H](C)C(=O)N1CCC[C@H]1C(=O)N1CCC[C@H]1C(=O)N1CCC[C@H]1C(=O)N[C@@H](CO)C(N)=O)[C@@H](C)CC)[C@@H](C)CC` [Example 478], the Emax was 109% at hGLP-1R (HEK293, cAMP, 37° C., 0.1% bovine casein, percent of maximal response to GLP-1(7-36)NH2, arithmetic mean, read-out: hGLP-1R Emax, % ± SEM); 84% at hGIPR (setting [5]); 93.9% on hGIPR (setting [6]). Besides, the EC50 was 0.322 nM at hGLP-1R (setting [1]); 6.16 nM on hGLP-1R (setting [2]); greater than 9950 nM on hGCGR (setting [3]); greater than 9950 nM at hGCGR (setting [4]); 0.0139 nM at hGIPR (setting [7]).

Regarding `CC[C@H](C)[C@H](NC(=O)[C@H](CC(C)C)NC(=O)[C@](C)(Cc1ccc(O)cc1)NC(=O)[C@@H](CCC(=O)O)NC(=O)[C@@H](NC(=O)[C@H](Cc1ccccc1)NC(=O)[C@H](CCCN)NC(=O)C(C)(C)NC(=O)[C@H](CCC(N)=O)NC(=O)[C@H](C)NC(=O)[C@H](CCCCNC(=O)COCCOCCNC(=O)COCCOCCNC(=O)CC[C@H](NC(=O)CCCCCCCCCCCCC(=O)O)C(=O)O)NC(=O)[C@H](CCCN)NC(=O)[C@H](CC(=O)O)NC(=O)[C@H](CC(C)C)NC(=O)[C@](C)(CC(C)C)NC(=O)[C@@H](NC(=O)C(C)(C)NC(=O)[C@H](Cc1ccncc1)NC(=O)[C@H](CC(=O)O)NC(=O)[C@H](CO)NC(=O)[C@@H](NC(=O)[C@](C)(Cc1ccccc1F)NC(=O)[C@@H](NC(=O)CNC(=O)[C@H](CCC(=O)O)NC(=O)C(C)(C)NC(=O)[C@@H](N)Cc1ccc(O)cc1)[C@@H](C)O)[C@@H](C)O)[C@@H](C)CC)[C@@H](C)CC)C(=O)N[C@@H](CCCCNC(=O)COCCOCCNC(=O)COCCOCCNC(=O)CC[C@H](NC(=O)CCCCCCCCCCCCC(=O)O)C(=O)O)C(=O)NCC(=O)NCC(=O)N1CCC[C@H]1C(=O)N[C@@H](CO)C(=O)N[C@@H](CO)C(=O)NCC(=O)N[C@@H](C)C(=O)N1CCC[C@H]1C(=O)N1CCC[C@H]1C(=O)N1CCC[C@H]1C(=O)N[C@@H](CO)C(N)=O` [Example 348], the Emax on hGLP-1R (HEK293, cAMP, 37° C., 0.1% bovine casein and 1.0% human serum albumin, percent of maximal response to GLP-1(7-36)NH2, read-out: hGLP-1R Emax, % ± SEM) was found to be 98%; on hGIPR (setting [5]) it was 79.3%; at hGIPR (setting [6]), 95.9%. Besides, the EC50 was 0.805 nM on hGLP-1R (setting [1]); 8.95 nM at hGLP-1R (setting [2]); greater than 9950 nM on hGCGR (setting [3]); greater than 9950 nM on hGCGR (setting [4]); 0.0228 nM on hGIPR (setting [7]).

For the molecule `CC[C@H](C)[C@H](NC(=O)[C@H](CCCN)NC(=O)[C@H](CC(=O)O)NC(=O)[C@H](CC(C)C)NC(=O)[C@](C)(CC(C)C)NC(=O)[C@@H](NC(=O)C(C)(C)NC(=O)[C@H](Cc1ccncc1)NC(=O)[C@H](CC(=O)O)NC(=O)[C@H](CO)NC(=O)[C@@H](NC(=O)[C@](C)(Cc1ccccc1F)NC(=O)[C@@H](NC(=O)CNC(=O)[C@H](CCC(=O)O)NC(=O)C(C)(C)NC(=O)[C@@H](N)Cc1ccc(O)cc1)[C@@H](C)O)[C@@H](C)O)[C@@H](C)CC)C(=O)N[C@@H](C)C(=O)N[C@@H](CCC(N)=O)C(=O)NC(C)(C)C(=O)N[C@@H](CCC(=O)O)C(=O)N[C@@H](Cc1ccccc1)C(=O)N[C@H](C(=O)N[C@@H](CCCCNC(=O)COCCOCCNC(=O)COCCOCCNC(=O)CC[C@H](NC(=O)CCCCCCCCCCOc1ccc(C(=O)O)cc1)C(=O)O)C(=O)N[C@@](C)(Cc1ccc(O)cc1)C(=O)N[C@@H](CC(C)C)C(=O)N[C@H](C(=O)N[C@@H](CCCCNC(=O)COCCOCCNC(=O)COCCOCCNC(=O)CC[C@H](NC(=O)CCCCCCCCCCOc1ccc(C(=O)O)cc1)C(=O)O)C(=O)NCC(=O)NCC(=O)N1CCC[C@H]1C(=O)N[C@@H](CO)C(=O)N[C@@H](CO)C(=O)NCC(=O)N[C@@H](C)C(=O)N1CCC[C@H]1C(=O)N1CCC[C@H]1C(=O)N1CCC[C@H]1C(=O)N[C@@H](CO)C(N)=O)[C@@H](C)CC)[C@@H](C)CC` [Example 311], the Emax came out at 110% on hGLP-1R (HEK293, read-out: hGLP-1R Emax, % ± SEM, cAMP, 37° C., 0.1% bovine casein, percent of maximal response to GLP-1(7-36)NH2, arithmetic mean); 98.3% on hGIPR (HEK293, read-out: hGIPR Emax, % ± SEM, 0.1% bovine casein and 1.0% human serum albumin, 37° C., percent of maximal response to GIP(1-42)NH2); 105% at hGIPR (HEK293, read-out: hGIPR Emax, % ± SEM, cAMP, 37° C., 0.1% bovine casein, percent of maximal response to GIP(1-42)NH2, arithmetic mean). The half-maximal effective concentration (EC50) at hGLP-1R (hGLP-1R EC50, nM (SEM, n), 37° C., 0.1% bovine casein (no human serum albumin), geometric mean) is 0.791 nM; at hGCGR (hGCGR EC50, nM (SEM, n), 0.1% bovine casein and 1.0% human serum albumin, 37° C., geometric mean) it was greater than 9950 nM; on hGCGR (hGCGR EC50, nM (SEM, n), cAMP, 37° C., 0.1% bovine casein (no human serum albumin), geometric mean), greater than 9950 nM; on hGIPR (hGIPR EC50, nM (SEM, n), 0.1% bovine casein and 1.0% human serum albumin, 37° C.) it was 2.16 nM; at hGIPR (hGIPR EC50, nM (SEM, n), cAMP, 37° C., 0.1% bovine casein (no human serum albumin)), 0.0243 nM.

A word on the Emax: it is the greatest response seen or fitted, relative to the assay's reference. What is called EC50 is the concentration at which the effect is half-maximal.
